PubChem BioAssay AID248 (DTP/NCI, 2004)
“And” between values parts separate entries of the source, which are not always exact repeats. Equal values may be shown once. Inconclusive results and toxic doses are left out. No stated cut-off is given here; in the data, active means T/C of 150% or more; inactive means T/C below 125%.

System: L1210 leukemia ip in BDF1 mice, survival T/C
Experiment: NCI In Vivo Anticancer Drug Screen. Data for tumor model L1210 Leukemia (intraperitoneal) in B6D2F1 (BDF1) mice
Settings: endpoint: mean survival time, higher = longer survival
How it was run: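 Each compound was tested against a transplantable tumor grown in mice. The endpoint was survival, with treated animals benchmarked against vehicle controls as a simple ratio.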

[1] = dose: 12.5 mg/kg/injection, schedule: Q01DX009 (ip), vehicle: saline
[2] = dose: 25.0 mg/kg/injection, schedule: Q01DX009 (ip), vehicle: saline
[3] = dose: 25.0 mg/kg/injection, schedule: Q04DX003 (ip), vehicle: saline with Tween-80
[4] = dose: 25.0 mg/kg/injection, schedule: Q04DX003 (ip), vehicle: saline
[5] = dose: 50.0 mg/kg/injection, schedule: Q01DX009 (ip), vehicle: saline
[6] = dose: 50.0 mg/kg/injection, schedule: Q04DX003 (ip), vehicle: saline
[7] = dose: 100.0 mg/kg/injection, schedule: Q04DX003 (ip), vehicle: Klucel (hydroxypropylcellulose) (HPC)
[8] = dose: 200.0 mg/kg/injection, schedule: Q04DX003 (ip), vehicle: Klucel (hydroxypropylcellulose) (HPC)
[9] = dose: 50.0 mg/kg/injection, schedule: Q01DX001 (ip), vehicle: saline
[10] = dose: 100.0 mg/kg/injection, schedule: Q01DX001 (ip), vehicle: saline
[11] = dose: 200.0 mg/kg/injection, schedule: Q01DX001 (ip), vehicle: saline
[12] = dose: 400.0 mg/kg/injection, schedule: Q01DX001 (ip), vehicle: saline
[13] = dose: 100.0 mg/kg/injection, schedule: Q01DX009 (ip), vehicle: Klucel (hydroxypropylcellulose) (HPC)
[14] = dose: 200.0 mg/kg/injection, schedule: Q01DX009 (ip), vehicle: Klucel (hydroxypropylcellulose) (HPC)
[15] = dose: 400.0 mg/kg/injection, schedule: Q01DX009 (ip), vehicle: Klucel (hydroxypropylcellulose) (HPC)
[16] = dose: 400.0 mg/kg/injection, schedule: Q04DX003 (ip), vehicle: Klucel (hydroxypropylcellulose) (HPC)

Measured: T/C

COc1cc2c(cc1OC)C13CCN4CC5=CCOC6CC(=O)N2C1C6C5CC43 (configuration not stated) (tested in a mixture with another compound)
inactive: dose: 12.0 mg/kg/injection, schedule: Q01DX001 (ip), vehicle: Klucel (hydroxypropylcellulose) (HPC) 89 % of control | dose: 12.0 mg/kg/injection, schedule: Q01DX009 (ip), vehicle: Klucel (hydroxypropylcellulose) (HPC) 97 % of control | dose: 12.5 mg/kg/injection, schedule: Q01DX001 (ip), vehicle: Klucel (hydroxypropylcellulose) (HPC) 101 % of control | [1] 97 % of control | dose: 25.0 mg/kg/injection, schedule: Q01DX001 (ip), vehicle: Klucel (hydroxypropylcellulose) (HPC) 95 % of control and 93 % of control | dose: 25.0 mg/kg/injection, schedule: Q01DX001 (ip), vehicle: saline with Tween-80 89 % of control | dose: 25.0 mg/kg/injection, schedule: Q01DX009 (ip), vehicle: Klucel (hydroxypropylcellulose) (HPC) 96 % of control | [2] 97 % of control | dose: 25.0 mg/kg/injection, schedule: Q04DX003 (ip), vehicle: Klucel (hydroxypropylcellulose) (HPC) 104 % of control | [3] 94 % of control | [4] 111 % of control | dose: 50.0 mg/kg/injection, schedule: Q01DX001 (ip), vehicle: Klucel (hydroxypropylcellulose) (HPC) 100 % of control and 102 % of control | dose: 50.0 mg/kg/injection, schedule: Q01DX001 (ip), vehicle: saline with Tween-80 96 % of control | dose: 50.0 mg/kg/injection, schedule: Q01DX009 (ip), vehicle: Klucel (hydroxypropylcellulose) (HPC) 91 % of control | [5] 106 % of control | dose: 50.0 mg/kg/injection, schedule: Q04DX003 (ip), vehicle: Klucel (hydroxypropylcellulose) (HPC) 107 % of control | dose: 50.0 mg/kg/injection, schedule: Q04DX003 (ip), vehicle: saline with Tween-80 100 % of control | [6] 107 % of control | dose: 75.0 mg/kg/injection, schedule: Q01DX001 (ip), vehicle: other 95 % of control | dose: 75.0 mg/kg/injection, schedule: Q01DX001 (ip), vehicle: saline 98 % of control and 94 % of control and 107 % of control | dose: 75.0 mg/kg/injection, schedule: Q01DX009 (ip), vehicle: saline 107 % of control | dose: 100.0 mg/kg/injection, schedule: Q01DX001 (ip), vehicle: Klucel (hydroxypropylcellulose) (HPC) 103 % of control | [7] 95 % of control | dose: 100.0 mg/kg/injection, schedule: Q04DX003 (ip), vehicle: saline with Tween-80 89 % of control | dose: 150.0 mg/kg/injection, schedule: Q01DX001 (ip), vehicle: other 86 % of control | dose: 150.0 mg/kg/injection, schedule: Q01DX001 (ip), vehicle: saline 98 % of control | [8] 90 % of control | dose: 300.0 mg/kg/injection, schedule: Q01DX001 (ip), vehicle: other 89 % of control

CCCCCCCCCCCCC(=O)N1CCCCCC1
inactive: dose: 100.0 mg/kg/injection, schedule: Q04DX002 (ip), vehicle: saline 102 % of control | dose: 200.0 mg/kg/injection, schedule: Q04DX002 (ip), vehicle: saline 102 % of control | dose: 400.0 mg/kg/injection, schedule: Q04DX002 (ip), vehicle: saline 91 % of control

c1ccc(-c2nc(-c3ccccc3)c(-c3ccccc3)nc2-c2ccccc2)cc1
inactive: dose: 100.0 mg/kg/injection, schedule: Q01DX001 (ip), vehicle: gum acacia 89 % of control | dose: 200.0 mg/kg/injection, schedule: Q01DX001 (ip), vehicle: gum acacia 91 % of control | dose: 400.0 mg/kg/injection, schedule: Q01DX001 (ip), vehicle: gum acacia 86 % of control

C(=C\[P+](Cc1ccccc1)(c1ccccc1)c1ccccc1)/c1ccccc1
inactive: dose: 12.5 mg/kg/injection, schedule: Q04DX003 (ip), vehicle: saline with Tween-80 100 % of control | [3] 92 % of control

COc1ccc(-c2oc3ccccc3c(=O)c2O)cc1
inactive: [9] 104 % of control | [10] 101 % of control | [11] 106 % of control | [12] 98 % of control

N#CCc1ccc(Cl)cc1Cl
inactive: dose: 12.5 mg/kg/injection, schedule: Q04DX002 (ip), vehicle: Klucel (hydroxypropylcellulose) (HPC) 97 % of control | dose: 25.0 mg/kg/injection, schedule: Q04DX002 (ip), vehicle: Klucel (hydroxypropylcellulose) (HPC) 91 % of control | dose: 50.0 mg/kg/injection, schedule: Q04DX002 (ip), vehicle: Klucel (hydroxypropylcellulose) (HPC) 87 % of control

CSc1ncc(COP(=S)(OCc2cnc(SC)nc2N)OCc2cnc(SC)nc2N)c(N)n1
inactive: dose: 12.5 mg/kg/injection, schedule: Q04DX003 (ip), vehicle: saline 100 % of control | [4] 103 % of control | [6] 97 % of control

CN=C(NC)c1cccc(NC(=O)c2ccc(C(=O)Nc3cccc(C(=NC)NC)c3)cc2)c1
inactive: dose: 1.2 mg/kg/injection, schedule: Q01DX Z (ip), vehicle: carboxymethylcellulose (CMC) 93 % of control | dose: 2.5 mg/kg/injection, schedule: Q01DX Z (ip), vehicle: carboxymethylcellulose (CMC) 96 % of control | dose: 5.0 mg/kg/injection, schedule: Q01DX Z (ip), vehicle: carboxymethylcellulose (CMC) 93 % of control | dose: 10.0 mg/kg/injection, schedule: Q01DX Z (ip), vehicle: carboxymethylcellulose (CMC) 100 % of control

Cc1ccc(NC(=S)N2CCC(CCCC3CCN(C(=S)Nc4ccc(C)c(C)c4)CC3)CC2)cc1C
inactive: [13] 93 % of control | [7] 88 % of control | [14] 90 % of control | [8] 98 % of control | [15] 90 % of control | [16] 92 % of control

CC(C)=C(CSC#N)S(=O)(=O)c1ccc(C)cc1
inactive: dose: 3.12 mg/kg/injection, schedule: Q01DX009 (ip), vehicle: Klucel (hydroxypropylcellulose) (HPC) 103 % of control | dose: 6.25 mg/kg/injection, schedule: Q01DX009 (ip), vehicle: Klucel (hydroxypropylcellulose) (HPC) 101 % of control | dose: 12.5 mg/kg/injection, schedule: Q01DX009 (ip), vehicle: Klucel (hydroxypropylcellulose) (HPC) 97 % of control

COc1ccc(/C=C\C(=O)/C=C/c2ccc(OC)cc2)cc1
inactive: [13] 98 % of control | [7] 94 % of control | [14] 98 % of control | [8] 94 % of control | [15] 88 % of control | [16] 100 % of control

COc1ccccc1C1CCCCCC1O (configuration not stated)
inactive: dose: 100.0 mg/kg/injection, schedule: Q01DX009 (ip), vehicle: saline 98 % of control | dose: 200.0 mg/kg/injection, schedule: Q01DX009 (ip), vehicle: saline 98 % of control | dose: 400.0 mg/kg/injection, schedule: Q01DX009 (ip), vehicle: saline 98 % of control

CC1(C)C2CCC(OC(=O)c3ccc([N+](=O)[O-])cc3)C1C2 (configuration not stated)
inactive: dose: 50.0 mg/kg/injection, schedule: Q01DX001 (ip), vehicle: carboxymethylcellulose (CMC) 102 % of control | dose: 100.0 mg/kg/injection, schedule: Q01DX001 (ip), vehicle: carboxymethylcellulose (CMC) 102 % of control | dose: 200.0 mg/kg/injection, schedule: Q01DX001 (ip), vehicle: carboxymethylcellulose (CMC) 93 % of control | dose: 400.0 mg/kg/injection, schedule: Q01DX001 (ip), vehicle: carboxymethylcellulose (CMC) 87 % of control

CN(C)CCOc1ccc(Cl)cc1Cc1ccccc1
inactive: dose: 3.12 mg/kg/injection, schedule: Q01DX009 (ip), vehicle: saline 95 % of control | dose: 6.25 mg/kg/injection, schedule: Q01DX009 (ip), vehicle: saline 95 % of control | [1] 118 % of control | [2] 105 % of control | [4] 100 % of control | [5] 112 % of control | [6] 94 % of control

CC1CCOC1=O (configuration not stated)
inactive: [9] 96 % of control | [10] 107 % of control | [11] 105 % of control | [12] 96 % of control

CCC[CH2][Ge]([CH2]CCC)[O][Ge]([CH2]CCC)[CH2]CCC
inactive: dose: 100.0 mg/kg/injection, schedule: Q04DX002 (ip), vehicle: saline with Tween-80 87 % of control

Cc1cc(C)c(NC(=O)c2ccccc2Cl)c(C)c1
inactive: dose: 100.0 mg/kg/injection, schedule: Q01DX009 (ip), vehicle: saline with Tween-80 93 % of control | dose: 200.0 mg/kg/injection, schedule: Q01DX009 (ip), vehicle: saline with Tween-80 93 % of control | dose: 400.0 mg/kg/injection, schedule: Q01DX009 (ip), vehicle: saline with Tween-80 97 % of control
